According to ChEMBL document CHEMBL1201862, “PubChem BioAssay data set” (2004):
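Tested at 5 concentrations; 48 h exposure; 96-well plates; endpoints linearly interpolated, else capped at highest concentration. Abbreviation: GI50, concentration required for 50% inhibition of growth.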 Active and inactive are the calls of the source. Rule as the data show it: active = GI50 up to about 1.1 µM and inactive = higher.

How the values were obtained:
Test in all cases: inhibition of tumour cell growth, NCI panel, 48 h
SK-OV-3 = tested on: SK-OV-3
SF-268 = tested on: SF-268
NCI/ADR-RES = tested on: NCI/ADR-RES
HCT-15 = tested on: HCT-15
SK-MEL-28 = tested on: SK-MEL-28
SK-MEL-5 = tested on: SK-MEL-5
A498 = tested on: A498
Hs-578T = tested on: Hs-578T
M14 = tested on: M14
SF-295 = tested on: SF-295
MDA-N = tested on: MDA-N
SK-MEL-2 = tested on: SK-MEL-2
KM12 = tested on: KM12
BT-549 = tested on: BT-549
NCI-H522 = tested on: NCI-H522
RXF 393 = tested on: RXF 393
K562 = tested on: K562
PC-3 = tested on: PC-3
786-0 = tested on: 786-0
LOX IMVI = tested on: LOX IMVI
A549 = tested on: A549
OVCAR-8 = tested on: OVCAR-8
NCI-H226 = tested on: NCI-H226
HCT-116 = tested on: HCT-116
COLO 205 = tested on: COLO 205
MDA-MB-435 = tested on: MDA-MB-435
SW-620 = tested on: SW-620
OVCAR-3 = tested on: OVCAR-3
HOP-92 = tested on: HOP-92
HOP-62 = tested on: HOP-62
IGROV-1 = tested on: IGROV-1
U-251 = tested on: U-251
SR = tested on: SR
OVCAR-4 = tested on: OVCAR-4
UACC-257 = tested on: UACC-257
TK-10 = tested on: TK-10
HL-60 = tested on: HL-60
UO-31 = tested on: UO-31
SNB-19 = tested on: SNB-19
NCI-H23 = tested on: NCI-H23
SF-539 = tested on: SF-539
RPMI-8226 = tested on: RPMI-8226
T47D = tested on: T47D
NCI-H460 = tested on: NCI-H460
UACC-62 = tested on: UACC-62
EKVX = tested on: EKVX
ACHN = tested on: ACHN
MCF7 = tested on: MCF7
OVCAR-5 = tested on: OVCAR-5
CAKI-1 = tested on: CAKI-1
DU-145 = tested on: DU-145
CCRF-CEM = tested on: CCRF-CEM
HT-29 = tested on: HT-29
MOLT-4 = tested on: MOLT-4
MDA-MB-231 = tested on: MDA-MB-231
SNB-75 = tested on: SNB-75
Malme-3M = tested on: Malme-3M
SN12C = tested on: SN12C

Measured: GI50

Cc1nn(-c2ccccc2)c2c1CC(=O)Nc1ccccc1-2
0.618 µM: HCT-15
active: NCI/ADR-RES 0.413 µM | SK-MEL-28 0.839 µM | SK-MEL-5 0.379 µM | Hs-578T 0.522 µM | M14 0.553 µM | SF-295 0.318 µM | MDA-N 0.187 µM | KM12 0.571 µM | BT-549 0.687 µM | NCI-H522 0.509 µM | RXF 393 0.313 µM | K562 0.412 µM | PC-3 0.679 µM | 786-0 0.951 µM | LOX IMVI 0.507 µM | HCT-116 0.409 µM | COLO 205 0.538 µM | MDA-MB-435 0.204 µM | SW-620 0.374 µM | OVCAR-3 0.482 µM | U-251 0.743 µM | SR 0.269 µM | UACC-257 0.555 µM | TK-10 0.566 µM | HL-60 0.236 µM | SF-539 0.607 µM | RPMI-8226 0.484 µM | NCI-H460 0.521 µM | UACC-62 0.521 µM | ACHN 1.05 µM | MCF7 0.372 µM | CCRF-CEM 0.44 µM | HT-29 0.424 µM | MOLT-4 0.522 µM | SNB-75 0.482 µM
inactive: SK-OV-3 1.81 µM | SF-268 1.63 µM | A498 1.59 µM | SK-MEL-2 1.65 µM | A549 1.61 µM | OVCAR-8 2.06 µM | NCI-H226 5.01 µM | HOP-92 4.18 µM | HOP-62 3.15 µM | IGROV-1 1.6 µM | OVCAR-4 18.5 µM | UO-31 2.94 µM | SNB-19 2.55 µM | NCI-H23 1.6 µM | T47D > 10 µM | EKVX 9.66 µM | OVCAR-5 4.82 µM | CAKI-1 2.82 µM | DU-145 2.65 µM | MDA-MB-231 1.48 µM

CC1(C)OC2COC(c3n[nH]c4c(=O)[nH]c(=O)[nH]c34)C2O1 (configuration not stated)
inactive: SK-OV-3 > 100 µM | SF-268 > 100 µM | NCI/ADR-RES > 100 µM | SK-MEL-28 > 100 µM | SK-MEL-5 > 100 µM | A498 > 100 µM | Hs-578T > 100 µM | M14 > 100 µM | SF-295 > 100 µM | MDA-N > 100 µM | SK-MEL-2 > 100 µM | KM12 > 100 µM | BT-549 > 100 µM | NCI-H522 > 100 µM | RXF 393 > 100 µM | K562 > 100 µM | PC-3 > 100 µM | 786-0 > 100 µM | LOX IMVI > 100 µM | Malme-3M > 100 µM | A549 > 100 µM | OVCAR-8 > 100 µM | SN12C > 100 µM | NCI-H226 > 100 µM | HCT-116 > 100 µM | COLO 205 > 100 µM | MDA-MB-435 > 100 µM | SW-620 > 100 µM | OVCAR-3 > 100 µM | HOP-92 74 µM | HOP-62 > 100 µM | IGROV-1 > 100 µM | U-251 > 100 µM | SR > 100 µM | OVCAR-4 > 100 µM | UACC-257 > 100 µM | TK-10 > 100 µM | HL-60 > 100 µM | UO-31 > 100 µM | SNB-19 > 100 µM | NCI-H23 > 100 µM | SF-539 > 100 µM | RPMI-8226 > 100 µM | T47D > 100 µM | NCI-H460 > 100 µM | UACC-62 > 100 µM | EKVX > 100 µM | ACHN > 100 µM | MCF7 > 100 µM | OVCAR-5 > 100 µM | CAKI-1 > 100 µM | DU-145 > 100 µM | HT-29 > 100 µM | MOLT-4 > 100 µM | MDA-MB-231 > 100 µM
> 100 µM: HCT-15
